From ChEMBL document CHEMBL1130631, “Synthesis of benzo[c]quinolizin-3-ones: selective non-steroidal inhibitors of steroid 5 alpha-reductase 1” (Bioorg Med Chem Lett, 1998)

How the values were obtained:
[1] = molecular target: T1, 3-oxo-5-alpha-steroid 4-dehydrogenase 1 (Homo sapiens, UniProt P18405); assay: Compound was evaluated for the inhibition of human Steroid 5-alpha-reductase type 1
T1 sequence (P18405 whole entry): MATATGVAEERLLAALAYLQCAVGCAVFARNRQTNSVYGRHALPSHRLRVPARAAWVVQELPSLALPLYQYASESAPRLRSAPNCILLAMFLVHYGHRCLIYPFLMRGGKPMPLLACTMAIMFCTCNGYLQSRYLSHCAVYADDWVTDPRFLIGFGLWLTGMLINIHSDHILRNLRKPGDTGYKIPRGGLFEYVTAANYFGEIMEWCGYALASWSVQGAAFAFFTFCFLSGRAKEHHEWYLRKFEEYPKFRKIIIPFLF

[2] = molecular target: T2, 3-oxo-5-alpha-steroid 4-dehydrogenase 2 (Homo sapiens, UniProt P31213); assay: Compound was evaluated for the inhibition of human Steroid 5-alpha-reductase type 2
T2 sequence (P31213 whole entry): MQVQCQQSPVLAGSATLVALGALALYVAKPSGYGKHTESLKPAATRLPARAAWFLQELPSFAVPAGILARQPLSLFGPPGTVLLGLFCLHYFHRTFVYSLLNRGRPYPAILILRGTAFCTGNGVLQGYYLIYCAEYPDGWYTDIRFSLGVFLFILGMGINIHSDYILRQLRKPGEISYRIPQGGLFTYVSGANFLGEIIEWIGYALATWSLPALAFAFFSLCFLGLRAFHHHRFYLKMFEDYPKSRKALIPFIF

[3] = molecular target: T1, 3-oxo-5-alpha-steroid 4-dehydrogenase 1; assay: Compound was evaluated for the inhibition of human Steroid 5-alpha-reductase type 1 from recombinant CHO cells; assay type: cell-based
[4] = molecular target: T2, 3-oxo-5-alpha-steroid 4-dehydrogenase 2; assay: Compound was evaluated for the inhibition of human Steroid 5-alpha-reductase type 2 from human prostate homogenates.; No inhibition; assay type: tissue-based, Prostate gland
[5] = molecular target: T2, 3-oxo-5-alpha-steroid 4-dehydrogenase 2; assay: Compound was evaluated for the inhibition of human Steroid 5-alpha-reductase type 2 receptor from human prostate homogenates; assay type: tissue-based, Prostate gland
[6] = molecular target: T2, 3-oxo-5-alpha-steroid 4-dehydrogenase 2; assay: Compound was evaluated for the inhibition of human Steroid 5-alpha-reductase type 2 receptor from human prostate homogenates.; assay type: tissue-based, Prostate gland
[7] = molecular target: T1, 3-oxo-5-alpha-steroid 4-dehydrogenase 1; assay: Compound was evaluated for the inhibition of human Steroid 5-alpha-reductase type 1
[8] = molecular target: T2, 3-oxo-5-alpha-steroid 4-dehydrogenase 2; assay: Compound was evaluated for the inhibition of human Steroid 5-alpha-reductase type 2 from human prostate homogenates; No inhibition; assay type: tissue-based, Prostate gland

Compound: CN1C(=O)CC[C@]2(C)c3ccc(Cl)cc3CCC12 (stereo not given in full)
- Ki [1]: 0.009 µM
- Ki [2]: > 1 µM

Compound: O=C1C=C2CCc3ccccc3N2CC1
- IC50 [3]: 0.298 µM
- IC50 [4]: Not Active

Compound: CC(C)(C)NC(=O)[C@H]1CC[C@H]2[C@@H]3CC[C@H]4NC(=O)C=C[C@]4(C)[C@H]3CC[C@]12C [FINASTERIDE]
- IC50 [3]: 0.911 µM
- IC50 [5]: 0.0012 µM

Compound: CC(C)(C)NC(=O)[C@@H]1CCC2C3CCC4=CC(=O)CCN4C3=CC[C@@]21C (stereo not given in full)
- IC50 [6]: 0.122 µM
- IC50 [7]: 0.127 µM

Compound: O=C1C=CN2c3ccccc3CCC2C1 (stereo not given)
- IC50 [3]: 5.13 µM
- IC50 [8]: Not Active
